The target of the test is T1, Coagulation factor XII (Homo sapiens, UniProt P00748).
T1 sequence (P00748 whole entry): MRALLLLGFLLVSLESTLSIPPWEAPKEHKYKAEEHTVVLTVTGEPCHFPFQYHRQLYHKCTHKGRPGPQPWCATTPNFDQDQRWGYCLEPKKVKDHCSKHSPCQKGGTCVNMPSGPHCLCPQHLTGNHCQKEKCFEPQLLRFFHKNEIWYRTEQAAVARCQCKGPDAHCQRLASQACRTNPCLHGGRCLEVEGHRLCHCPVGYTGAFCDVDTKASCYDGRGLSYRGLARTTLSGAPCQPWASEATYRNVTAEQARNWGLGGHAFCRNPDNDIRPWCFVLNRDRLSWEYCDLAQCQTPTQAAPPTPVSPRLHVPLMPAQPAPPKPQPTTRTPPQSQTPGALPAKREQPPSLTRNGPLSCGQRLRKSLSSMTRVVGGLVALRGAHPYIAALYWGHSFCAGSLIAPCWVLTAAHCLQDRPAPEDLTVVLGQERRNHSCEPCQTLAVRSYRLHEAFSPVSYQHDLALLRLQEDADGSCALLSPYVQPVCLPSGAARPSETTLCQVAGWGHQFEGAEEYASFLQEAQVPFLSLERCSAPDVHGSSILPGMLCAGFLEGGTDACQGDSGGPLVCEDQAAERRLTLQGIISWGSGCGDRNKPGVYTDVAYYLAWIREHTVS
Put plainly: FXIIa inhibitor potency, concentration-response, biochemical (AID 716).

For orientation: IC50 means the concentration that inhibits the measured activity by half. Read a low IC50 as inhibition by little substance. On to `CC(C)C1c2c(-c3cccs3)n[nH]c2OC(=N)C1C#N` (configuration not stated) [SMR000014022], for which the IC50 was more than 50 µM.
The same measure for `C=CCOC(=O)C1=C(C)N=C(C)C(C(=O)OCC=C)C1c1ccc(O)cc1` (configuration not stated) [SMR000107649]: more than 50 µM.

The record behind these values is BindingDB's records for doi:10.7270/Q2BC3WZZ (Pcmd, 2008).
